From patent publication US9023789B2, “Amylin analogs and pharmaceutical compositions thereof” (Novo Nordisk A/S, priority 2012, dated 2015)
Numbered stars: 1 amine (or outer) side, 2 acyl side, 3 side chain; on linkers, the order of the positions; unused ones are H or OH. Bridge positions count the residues as written; N and C are the ends. Side chains are listed from the residue outwards. Peptide text beside a SMILES is read from it. * marks the point of attachment. C20 diacid = O=C(O)CCCCCCCCCCCCCCCCCCC(=O)*; γGlu = O=C(O)[C@H](CCC(=O)[*:2])N[*:1]

Columns and labels:
[1] = molecular target: T1, human amylin 3(a) receptor (human calcitonin receptor + RAMP-3) in BHK570 cells (Homo sapiens, UniProt O60896+P30988); assay: ASSAY (II)a functional assay, human amylin receptor (CRE luciferase); assay type: cell-based; details: for EC50: human amylin receptor functional potency, assay (II), read-out: hAmylin-R funct. EC50
T1 construct: expressed in transfected cells
Outline: (§1)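 BHK cells stably carrying a CRE-luciferase reporter plus calcitonin receptor, or calcitonin receptor with RAMP-3 for the amylin 3(a) receptor, were seeded and kept overnight at 37° C. Compounds were added in assay medium with 10% FBS and 10 mM Hepes, pH 7.4, for 3 hours at 37° C, then luminescence was counted.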

rat calcitonin receptor = molecular target: T2, rat calcitonin receptor (Rattus norvegicus, UniProt P32214); assay: ASSAY (VIII) binding to the rat calcitonin receptor; details: Table 7, read-out: rCTR bind IC50
T2 construct: expressed in transfected cells; host or cells: BHK tk'ts 13 (transient, FuGENE 6), membranes
T2 sequence (P32214 25-479 isoform P32214-2 limits assumed): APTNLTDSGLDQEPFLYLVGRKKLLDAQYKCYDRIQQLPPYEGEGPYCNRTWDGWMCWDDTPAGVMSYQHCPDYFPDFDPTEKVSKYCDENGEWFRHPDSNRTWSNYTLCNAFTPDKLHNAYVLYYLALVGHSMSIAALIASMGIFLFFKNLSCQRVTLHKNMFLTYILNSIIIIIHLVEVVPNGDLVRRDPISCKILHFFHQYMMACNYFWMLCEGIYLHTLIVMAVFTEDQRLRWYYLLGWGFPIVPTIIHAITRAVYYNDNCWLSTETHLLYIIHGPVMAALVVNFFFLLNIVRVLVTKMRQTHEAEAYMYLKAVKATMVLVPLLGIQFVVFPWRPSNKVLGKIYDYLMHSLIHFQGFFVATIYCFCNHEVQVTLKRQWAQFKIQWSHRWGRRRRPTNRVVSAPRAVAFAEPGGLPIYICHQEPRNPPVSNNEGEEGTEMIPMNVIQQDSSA
Outline: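 Rat calcitonin receptor is expressed transiently in BHK tk′ts 13 cells cultured in DMEM with 10% FBS. Roughly two days (approximately 48 hours) post-transfection, cells are harvested for membrane preparation.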

[2] = molecular target: T3, human amylin receptor (membranes from Amylin 3(a)/CRE-luc cells) (Homo sapiens, UniProt O60896+P30988); assay: ASSAY (V) binding to the human amylin receptor (SPA, 125I-rat amylin); details: for IC50: Table 4, read-out: hAmylin-R bind IC50;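 for all read-outs here: competition binding of cell membranes (35 ng/µL) mixed with SPA beads in 384-well plates at 40 µL total volume, read by scintillation counting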
T3 construct: expressed in transfected cells
T3 sequence (P30988 25-474): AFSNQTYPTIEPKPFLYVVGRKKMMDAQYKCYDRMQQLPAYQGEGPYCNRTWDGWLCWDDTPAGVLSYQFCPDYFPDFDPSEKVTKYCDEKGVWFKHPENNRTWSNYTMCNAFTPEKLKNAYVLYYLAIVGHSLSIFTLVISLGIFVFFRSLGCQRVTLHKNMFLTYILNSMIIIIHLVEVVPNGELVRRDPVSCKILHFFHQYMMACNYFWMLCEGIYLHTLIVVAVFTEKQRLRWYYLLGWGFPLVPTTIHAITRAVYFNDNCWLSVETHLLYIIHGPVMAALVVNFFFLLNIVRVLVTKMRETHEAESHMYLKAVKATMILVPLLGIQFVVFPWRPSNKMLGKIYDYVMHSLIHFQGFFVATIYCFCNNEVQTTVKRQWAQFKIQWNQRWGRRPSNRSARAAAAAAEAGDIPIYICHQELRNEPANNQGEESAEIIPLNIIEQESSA
T3 sequence (O60896 24-148 partner): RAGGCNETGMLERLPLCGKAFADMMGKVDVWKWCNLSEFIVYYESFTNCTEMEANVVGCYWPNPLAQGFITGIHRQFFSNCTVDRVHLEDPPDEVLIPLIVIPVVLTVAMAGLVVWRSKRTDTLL

[3] = molecular target: T4, rat amylin receptor (rat calcitonin receptor + rat RAMP 3) (Rattus norvegicus, UniProt P32214+Q9JJ73); assay: ASSAY (VI) binding to the rat amylin receptor; details: for IC50: binding to rat amylin receptor, read-out: rAmylin-R bind IC50
T4 construct: expressed in transfected cells; host or cells: BHK tk'ts 13 (transient, FuGENE 6), membranes
T4 sequence (P32214 25-479 isoform P32214-2 limits assumed): T2 sequence (P32214 25-479 isoform P32214-2 limits assumed)
T4 sequence (Q9JJ73 23-147 partner): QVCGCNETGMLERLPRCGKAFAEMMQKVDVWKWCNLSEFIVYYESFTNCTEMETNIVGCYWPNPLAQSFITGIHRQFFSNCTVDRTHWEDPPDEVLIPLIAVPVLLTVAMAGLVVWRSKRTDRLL
Outline: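 Binding to the rat amylin receptor was determined with membrane preparations. The receptor was expressed by transiently transfecting BHK tk′ts 13 cells with rat calcitonin receptor, using FuGENE® 6 (Roche) according to the manufacturer's recommendations. Roughly 48 hours later the cells were harvested and their membranes isolated.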

[4] = molecular target: T5, human calcitonin receptor (Homo sapiens, UniProt P30988); assay: ASSAY (VII) binding to the human calcitonin receptor (SPA, 125I-Calcitonin); details: read-out: hCTR bind IC50;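 note: cell membranes (35 ng/µL) combined with SPA beads in 40 µL of pH 7.4 Hepes buffer, 384-well format, signal counted on a TopCounter instrument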
T5 construct: expressed in transfected cells
T5 sequence (P30988 25-474): T3 sequence (P30988 25-474)

[5] = molecular target: T6, human calcitonin (a) receptor in BHK570 cells (Homo sapiens, UniProt P30988); assay: ASSAY (II)a functional assay, human calcitonin receptor (CRE luciferase); assay type: cell-based; details: read-out: hCTR funct. EC50
T6 construct: expressed in transfected cells
T6 sequence (P30988 25-474): T3 sequence (P30988 25-474)
Outline: as §1

[6] = hCTR funct. EC50 divided by hAmylin-R funct. EC50
[7] = hCTR funct. EC50 over hAmylin-R funct. EC50
[8] = human functional selectivity: hCTR funct. EC50 / hAmylin-R funct. EC50
[9] = Table 5, selectivity, hCTR bind IC50 / hAmylin-R bind IC50
[10] = Table 5a, selectivity, hCTR bind IC50 / hAmylin-R bind IC50
[11] = Table 5b, selectivity, hCTR bind IC50 / hAmylin-R bind IC50
[12] = Table 5c, selectivity, hCTR bind IC50 / hAmylin-R bind IC50
[13] = Table 7, human binding selectivity, included for comparison
[14] = Table 7a (preferred compounds), human binding selectivity, included for comparison
[15] = ratio of human calcitonin receptor binding IC50 to human amylin receptor binding IC50
[16] = Table 7, rat binding selectivity, rCTR IC50 / rAmylin-R IC50
[17] = Table 7a (preferred compounds), rat binding selectivity, rCTR IC50 / rAmylin-R IC50
[18] = ratio of rCTR bind IC50 to rAmylin-R bind IC50

Compound | Ratio hCT/hAmylin funct. [1, 6] | Ratio hCT/hAmylin funct. [1, 7] | EC50 [1] [nM] | Ratio hCT/hAmylin funct. [1, 8] | IC50 (rat calcitonin receptor) [nM] | IC50 [2] [nM] | Ratio hCT/hAmylin binding [2, 9] | Ratio hCT/hAmylin binding [2, 10] | Ratio hCT/hAmylin binding [2, 11] | Ratio hCT/hAmylin binding [2, 12] | Ratio hCT/hAmylin binding [2, 13] | Ratio hCT/hAmylin binding [2, 14] | Ratio hCT/hAmylin binding [2, 15] | IC50 ([3]; Table 7) [nM] | Ratio rCT/rAmylin binding [3, 16] | Ratio rCT/rAmylin binding [3, 17] | Ratio rCT/rAmylin binding [3, 18] | IC50 [4] [nM] | EC50 [5] [nM] | Ratio hCT/hAmylin funct. ([1]; hCTR funct. EC50 / hAmylin-R funct. EC50)
CC[C@H](C)[C@H](NC(=O)[C@H](C)NC(=O)CNC(=O)[C@H](Cc1ccccc1)NC(=O)[C@H](CC(N)=O)NC(=O)[C@@H]1CCCN1C(=O)[C@H](CO)NC(=O)[C@H](CO)NC(=O)[C@H](Cc1c[nH]cn1)NC(=O)[C@H](CCCNC(=N)N)NC(=O)[C@H](CC(C)C)NC(=O)[C@H](Cc1ccccc1)NC(=O)[C@H](Cc1c[nH]cn1)NC(=O)[C@H](C)NC(=O)[C@H](CC(C)C)NC(=O)[C@H](CCCNC(=N)N)NC(=O)[C@H](CCC(N)=O)NC(=O)[C@@H](NC(=O)[C@H](C)NC(=O)[C@@H]1CSSC[C@H](NC(=O)[C@@H](N)CCCCNC(=O)CC[C@H](NC(=O)CCCCCCCCCCCCCCCCCCC(=O)O)C(=O)O)C(=O)N[C@@H](CC(N)=O)C(=O)N[C@@H]([C@@H](C)O)C(=O)N[C@@H](C)C(=O)N[C@@H]([C@@H](C)O)C(=O)N1)[C@@H](C)O)C(=O)N1CCC[C@H]1C(=O)N[C@@H](CO)C(=O)N[C@@H](CO)C(=O)N[C@H](C(=O)N[C@@H](CC(N)=O)C(=O)N[C@H](C(=O)NCC(=O)N[C@@H](CCCNC(=N)N)C(=O)N[C@@H](CC(N)=O)C(=O)N[C@H](C(=O)N[C@@H](Cc1ccc(O)cc1)C(N)=O)[C@@H](C)O)C(C)C)[C@@H](C)O [Example 85] (H-K([γGlu-C20 diacid])CNTATCATQRLAHFLRHSSPNFGAIPSSTNVGRNTY-NH2; disulfide 2-7 (inferred); N-terminus assumed) | 26.6 | 26.6 | 0.146 | 26.6 | 146 | 0.876 | 91.8 | 91.8 | 91.8 | 91.8 | 91.8 | 91.8 | 91.8 | 3.14 | 46.5 | 46.5 | 46.5 | 80.4 | 3.88 | –
CC[C@H](C)[C@H](NC(=O)[C@H](C)NC(=O)CNC(=O)[C@H](Cc1ccccc1)NC(=O)[C@H](CC(N)=O)NC(=O)[C@@H]1CCCN1C(=O)[C@H](CO)NC(=O)[C@H](CO)NC(=O)[C@H](Cc1c[nH]cn1)NC(=O)[C@H](CCCNC(=N)N)NC(=O)[C@H](CC(C)C)NC(=O)[C@H](Cc1ccccc1)NC(=O)[C@H](CCC(=O)O)NC(=O)[C@H](C)NC(=O)[C@H](CC(C)C)NC(=O)[C@H](CCCNC(=N)N)NC(=O)[C@H](CCC(N)=O)NC(=O)[C@@H](NC(=O)[C@H](C)NC(=O)[C@@H]1CSSC[C@H](NC(=O)[C@@H](N)CCCCNC(=O)CC[C@H](NC(=O)CC[C@H](NC(=O)CCCCCCCCCCCCCCCCCCC(=O)O)C(=O)O)C(=O)O)C(=O)N[C@@H](CC(N)=O)C(=O)N[C@@H]([C@@H](C)O)C(=O)N[C@@H](C)C(=O)N[C@@H]([C@@H](C)O)C(=O)N1)[C@@H](C)O)C(=O)N1CCC[C@H]1C(=O)N[C@@H](CO)C(=O)N[C@@H](CO)C(=O)N[C@H](C(=O)N[C@@H](CC(N)=O)C(=O)N[C@H](C(=O)NCC(=O)N[C@@H](Cc1c[nH]cn1)C(=O)N[C@@H](CC(N)=O)C(=O)N[C@H](C(=O)N[C@@H](Cc1ccc(O)cc1)C(N)=O)[C@@H](C)O)C(C)C)[C@@H](C)O [Example 87] (H-K([γGlu-γGlu-C20 diacid])CNTATCATQRLAEFLRHSSPNFGAIPSSTNVGHNTY-NH2; disulfide 2-7) | 3.8 | 3.8 | 0.285 | 3.8 | 94.5 | 0.633 | 35.6 | 35.6 | 35.6 | 35.6 | 35.6 | 35.6 | 35.6 | 2.07 | 45.6 | 45.6 | 45.6 | 22.5 | 1.09 | –
CC[C@H](C)[C@H](NC(=O)[C@H](C)NC(=O)CNC(=O)[C@H](Cc1ccccc1)NC(=O)[C@H](CC(N)=O)NC(=O)[C@@H]1CCCN1C(=O)[C@H](CO)NC(=O)[C@H](CO)NC(=O)[C@H](Cc1c[nH]cn1)NC(=O)[C@H](CCCNC(=N)N)NC(=O)[C@H](CC(C)C)NC(=O)[C@H](Cc1ccccc1)NC(=O)[C@H](C)NC(=O)[C@H](C)NC(=O)[C@H](CC(C)C)NC(=O)[C@H](CCCNC(=N)N)NC(=O)[C@H](CCC(N)=O)NC(=O)[C@@H](NC(=O)[C@H](C)NC(=O)[C@@H]1CSSC[C@H](NC(=O)[C@@H](N)CCCCNC(=O)CC[C@H](NC(=O)CCCCCCCCCCCCCCCCCCC(=O)O)C(=O)O)C(=O)N[C@@H](CC(N)=O)C(=O)N[C@@H]([C@@H](C)O)C(=O)N[C@@H](C)C(=O)N[C@@H]([C@@H](C)O)C(=O)N1)[C@@H](C)O)C(=O)N1CCC[C@H]1C(=O)N[C@@H](CO)C(=O)N[C@@H](CO)C(=O)N[C@H](C(=O)N[C@@H](CC(N)=O)C(=O)N[C@H](C(=O)NCC(=O)N1CCC[C@H]1C(=O)N[C@@H](CC(N)=O)C(=O)N[C@H](C(=O)N[C@@H](Cc1ccc(O)cc1)C(N)=O)[C@@H](C)O)C(C)C)[C@@H](C)O [Example 94] (H-K([γGlu-C20 diacid])CNTATCATQRLAAFLRHSSPNFGAIPSSTNVGPNTY-NH2; disulfide 2-7 (inferred)) | 4.5 | – | 0.07 | 4.5 | 111 | 0.148 | 46.3 | 46.3 | 46.3 | 46.3 | 46.3 | 46.3 | 46.3 | 0.397 | 280.1 | 280.1 | 280.1 | 6.86 | 0.316 | 4.5
